# Results published in paper PMC8330742, “New benzothieno[2,3-c]pyridines as non-steroidal CYP17 inhibitors: design, synthesis, anticancer screening, apoptosis induction, and in silico ADME profile studies” (Journal of Enzyme Inhibition and Medicinal Chemistry, 2021).
# How the values were obtained:
# plasma testosterone = experiment: Testosterone ELISA assay in mice prostate cancer model; assay type: in vivo; conditions: 5 mg/kg i.p., 5 days a week, ELISA, 5 mg/kg
# Description: (§1) A total of 16 mice from the TRAMP/FVB background ([…], male, average 45 days, average weight […], mice with prostate cancer) were taken and divided into 2 groups with 8 animals in each group. One group of mice was given a drug in 0.2 ml of DMSO and phosphate-buffered saline (1:10) ratio (5 mg/kg body weight, i.p., 5 days a week). The control group animals were treated with 0.2 ml of DMSO and phosphate-buffered saline (1:10) ratio. A total of eight mice, four animals from each group, were examined at 13 weeks of age, and the remaining animals from each group were examined at 20 weeks for prostate tumour development. Treatment was stopped 24 h before killing the animals.
# The BioVendor mouse/rat testosterone ELISA assay is a competitive immunoassay for the measurement of testosterone in rat and mouse serum or plasma based on the principle of competitive binding. An unknown amount of testosterone present in the sample (plasma or serum) and a known amount of testosterone conjugated to horseradish peroxidase compete for the binding sites of testosterone antiserum coated to the wells of a microplate. The sample was incubated with the microplate for 1 h, then washed four times. The HRP substrate solution was added followed by the stop solution. Colour change has been observed, and the optical density was measured at 450 nm.
# Assay procedures: Sufficient number of microplate wells were prepared to accommodate standard and samples in duplicates. The standard, sample, and control (10 µL each) were dispensed with new disposable tips into appropriate wells. Incubation buffer 100 µL was dispensed into each well. Afterward, enzyme conjugate (50 µL) was added to each well and incubated for 60 min at room temperature on a microplate mixer. The content of the wells was discarded, and the wells were rinsed 4 times with diluted wash solution (300 µL per well). The substrate solution (200 µL) was added to each well and incubated in the dark without shaking for 30 min. The reaction was stopped by adding a stop solution (2 N hydrochloric acid solution, 50 µL) to each well. The absorbance of each well was determined at 450 nm.
# CYP17 = conditions: Figure 1, known CYP17 inhibitors; cited from earlier work
# [1] = system: prostate cancer cell line (PC-3); experiment: MTT cytotoxicity assay; assay type: cell-based, human; conditions: Homo sapiens
# Description: The MTT method for monitoring in vitro cytotoxicity was used with multiwell plates. Three human cell lines, namely prostate cancer cell line (PC-3), renal cancer cell line (UO-31), and breast cancer cell line (MCF-7) were obtained from the American Type Culture Collection ATCC, Manassas, VA, USA). The cells were trypsinized and seeded in 96 well plates with a density of 1.2 − 1.8 × 10,000 cells/well for 24 h at 37 °C. After treating the cells with five concentrations of compound 5c (0.01, 0.1, 1, 10, 100 µM), an MTT solution (Sigma Co., St. Louis, MO, USA) (5 mg/mL in phosphate buffer solution) was applied to each well and […]. The plates were cultivated in 5% CO2 for 4 h at 37 °C. Successively, the remaining formazan crystals were dissolved in 100 µl of DMSO, and the absorbance was determined with the ROBONIK P2000 spectrophotometer at a wavelength of 570 nm. The obtained values were analysed using Gen5 software (BioTek, UK). The proliferation percentage in each treated cell line was standardised based on their control wells. Both tests have been conducted in triplicate. The IC50 values were calculated using sigmoidal dose-response curve fitting models. […] Each test included a blank containing a complete medium without cells.
# CYP17 enzyme = CYP17 enzyme ELISA in mice prostate cancer model; assay type: in vivo; conditions: 5 mg/kg i.p., 5 days a week, ELISA of tissue (Mice testis)
# Description: as §1
# BioSource 2704060 96 assay kit is a sandwich enzyme immunoassay for in vitro quantitative measurement of CYP17 enzyme activity in mouse tissue homogenates, cell lysates, cell culture supernatant, and other biological fluids. Tested tissues were rinsed in ice-cold PBS to remove excess blood and weighed before homogenisation. The tissues were minced and homogenised in fresh lysis buffer with a glass homogeniser. (catalog: IS007, different lysis buffer needs to be chosen based on subcellular location of the target protein) (w:v = 1:20–1:50, e.g. 1 ml lysis buffer is added in 20–50 mg tissue sample) The resulting suspension was sonicated with an ultrasonic cell disrupter till the solution was clarified. The homogenates were centrifuged for 5 min at 10,000 × g, and the supernatant was collected. An Aliquot was assayed and stored at ≤ −20 °C.
# The assay sample and standard were incubated together with CYP-HRP conjugate in an appropriate number of microplates pre-coated with an antibody specific for the CYP17 enzyme for 1 h. After the incubation period, the wells were decanted and washed five times. The wells were then incubated with a substrate for the HRP enzyme. […] Colour intensity was measured spectrophotometrically at 450 nm in a microplate reader. […]
# Assay procedures: Wells for a standard, blank, and sample were prepared. […] The absorbance was measured immediately at 450 nm.
# WI-38 human cell line = experiment: In vitro cytotoxicity on WI-38 human cell line (MTT); assay type: cell-based; conditions: WI-38 normal human cell line
# Description: Cell Line cells were obtained from American Type Culture Collection and were cultured using DMEM (Invitrogen/Life Technologies) supplemented with 10% FBS (Hyclone), 10 µg/ml of insulin (Sigma), and 1% penicillin-streptomycin. All of the other chemicals and reagents were obtained from Sigma or Invitrogen. Plate cells were incubated (cells density 1.2–1.8 × 10,000 cells/well) in a volume of 100 µL complete growth medium and 100 ul of the tested compound per well in a 96-well plate for 24 h before the MTT assay. The cultures were removed from the incubator into a laminar flow hood or other sterile work area followed by the addition of reconstituted MTT in an amount equal to 10% of the culture medium volume, then incubated for an additional 2 h. After the incubation period, cultures were removed from the incubator, and the resulted formazan crystals were dissolved by adding an amount of MTT solubilisation solution [M-8910] equal to the original culture medium volume, then the absorbance at a wavelength of 570 nm was measured. Finally, the IC50 of the tested compound compared to the reference was calculated using GraphPad Prism software.
# [2] = listed as Abireratone reference
# [3] = listed as abiraterone reference
smiles,measurement,setting,value
"C[C@]12CC[C@H](O)CC1=CC[C@@H]1[C@@H]2CC[C@]2(C)C(c3cccnc3)=CC[C@@H]12 [Abiraterone, abiraterone, reference compound]",Plasma testosterone aver. conc.,plasma testosterone; [2],13.79 nM
same,Plasma testosterone aver. conc.,plasma testosterone; [3],13.79 ± 0.33 nM
same,IC50,CYP17,0.002 µM
same,IC50,[1],8.3 µM
same,CYP17 enzyme aver. conc.,CYP17 enzyme; [2],10.72 nM
same,CYP17 enzyme aver. conc.,CYP17 enzyme; [3],10.72 ± 0.17 nM
"CN[C@@H]1C[C@H]2O[C@@](C)([C@@H]1OC)n1c3ccccc3c3c4c(c5c6ccccc6n2c5c31)C(=O)NC4 [staurosporine, reference compound]",IC50,WI-38 human cell line,19.2 µM
same,IC50,[1],5.1 µM
